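Abbreviation: GI50, concentration required for 50% inhibition of growth. TGI marks complete inhibition of growth.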
Key:
Assay in all cases: NCI anticancer screen, dose series, 384-well format
[1] = tested on: 786-0 renal
[2] = tested on: A498 renal
[3] = tested on: A549 NSCLC
[4] = tested on: ACHN renal
[5] = tested on: BT-549 breast
[6] = tested on: CAKI-1 renal
[7] = tested on: COLO 205 colon
[8] = tested on: DU-145 prostate
[9] = tested on: EKVX NSCLC
[10] = tested on: HCC-2998 colon
[11] = tested on: HCT-15 colon
[12] = tested on: HL-60(TB) leukemia
[13] = tested on: HOP-62 NSCLC
[14] = tested on: HOP-92 NSCLC
[15] = tested on: HS 578T breast
[16] = tested on: HT29 colon
[17] = tested on: IGROV1 ovarian
[18] = tested on: K-562 leukemia
[19] = tested on: KM12 colon
[20] = tested on: LOX IMVI melanoma
[21] = tested on: M14 melanoma
[22] = tested on: MALME-3M melanoma
[23] = tested on: MCF7 breast
[24] = tested on: MDA-MB-231 breast
[25] = tested on: MDA-MB-435 melanoma
[26] = tested on: MDA-MB-468 breast
[27] = tested on: MOLT-4 leukemia
[28] = tested on: NCI-H226 lung
[29] = tested on: NCI-H23 lung
[30] = tested on: NCI-H322M lung
[31] = tested on: NCI-H460 NSCLC
[32] = tested on: NCI-H522 lung
[33] = tested on: NCI/ADR-RES ovarian
[34] = tested on: OVCAR-3 ovarian
[35] = tested on: OVCAR-4 ovarian
[36] = tested on: OVCAR-5 ovarian
[37] = tested on: OVCAR-8 ovarian
[38] = tested on: PC-3 prostate
[39] = tested on: RPMI-8226 leukemia
[40] = tested on: RXF 393 renal
[41] = tested on: SF-268 CNS
[42] = tested on: SF-295 CNS
[43] = tested on: SF-539 CNS
[44] = tested on: SK-MEL-28 melanoma
[45] = tested on: SK-MEL-5 melanoma
[46] = tested on: SK-OV-3 ovarian
[47] = tested on: SN12C renal
[48] = tested on: SNB-19 CNS
[49] = tested on: SNB-75 CNS
[50] = tested on: SR leukemia
[51] = tested on: SW-620 colon
[52] = tested on: T-47D breast
[53] = tested on: TK-10 renal
[54] = tested on: UACC-257 melanoma
[55] = tested on: UACC-62 melanoma
[56] = tested on: UO-31 renal

C=CC(=O)N1CC[C@H](n2nc(C#Cc3cc(OC)cc(OC)c3)c3c(N)ncnc32)C1
GI50 [1]: 2.96 µM | TGI [1]: 19.1 µM | GI50 [2]: 2.73 µM | TGI [2]: 18.2 µM | GI50 [3]: 12.7 µM | TGI [3]: > 100 µM | GI50 [4]: 6.8 µM | TGI [4]: 72.9 µM | GI50 [5]: 1.51 µM | TGI [5]: 12.2 µM | GI50 [6]: 4.44 µM | TGI [6]: > 100 µM | GI50 [7]: 30 µM | TGI [7]: > 100 µM | GI50 [8]: 9.04 µM | TGI [8]: > 100 µM | GI50 [9]: 13.4 µM | TGI [9]: 98.9 µM | GI50 [10]: 2.98 µM | TGI [10]: 11 µM | GI50 [11]: 4.46 µM | TGI [11]: 25.6 µM | GI50 [12]: 4.6 µM | TGI [12]: 16 µM | GI50 [13]: 6.44 µM | TGI [13]: > 100 µM | GI50 [14]: 2.52 µM | TGI [14]: 14.2 µM | GI50 [15]: 2.74 µM | TGI [15]: 11.5 µM | GI50 [16]: 17.5 µM | TGI [16]: > 100 µM | GI50 [17]: 4.93 µM | TGI [17]: 20.7 µM | GI50 [18]: 12 µM | TGI [18]: > 100 µM | GI50 [19]: 10.2 µM | TGI [19]: 42.1 µM | GI50 [20]: 6.09 µM | TGI [20]: 22.1 µM | GI50 [21]: 16.9 µM | TGI [21]: 69.8 µM | GI50 [22]: 7.39 µM | TGI [22]: 31.4 µM | GI50 [23]: 4.34 µM | TGI [23]: > 100 µM | GI50 [24]: 4.03 µM | TGI [24]: 68.2 µM | GI50 [25]: 31.1 µM | TGI [25]: > 100 µM | GI50 [26]: 2.09 µM | TGI [26]: 4.53 µM | GI50 [27]: 2.47 µM | TGI [27]: 5.06 µM | GI50 [28]: 12.7 µM | TGI [28]: > 100 µM | GI50 [29]: 10.5 µM | TGI [29]: 28.6 µM | GI50 [30]: 11.5 µM | TGI [30]: > 100 µM | GI50 [31]: 12 µM | TGI [31]: > 100 µM | GI50 [32]: 4.39 µM | TGI [32]: 14.2 µM | GI50 [33]: 11.1 µM | TGI [33]: 44.3 µM | GI50 [34]: 3.45 µM | TGI [34]: 17.6 µM | GI50 [35]: 2.02 µM | TGI [35]: 25.6 µM | GI50 [36]: 49.4 µM | TGI [36]: > 100 µM | GI50 [37]: 15.9 µM | TGI [37]: 72.3 µM | GI50 [38]: 20.1 µM | TGI [38]: > 100 µM | GI50 [39]: 1.53 µM | TGI [39]: 4.41 µM | GI50 [40]: 6.72 µM | TGI [40]: 66.4 µM | GI50 [41]: 9.33 µM | TGI [41]: 75 µM | GI50 [42]: 25.5 µM | TGI [42]: > 100 µM | GI50 [43]: 4.52 µM | TGI [43]: 20.6 µM | GI50 [44]: 17.7 µM | TGI [44]: 91.2 µM | GI50 [45]: 5.05 µM | TGI [45]: 18.9 µM | GI50 [46]: 5.24 µM | TGI [46]: 41.5 µM | GI50 [47]: 3.64 µM | TGI [47]: 33.9 µM | GI50 [48]: 12.6 µM | TGI [48]: > 100 µM | GI50 [49]: 1.44 µM | TGI [49]: 10.7 µM | GI50 [50]: 3.11 µM | TGI [50]: 13 µM | GI50 [51]: 13.2 µM | TGI [51]: 32.6 µM | GI50 [52]: 3.29 µM | TGI [52]: 52.6 µM | GI50 [53]: 5.66 µM | TGI [53]: 71.7 µM | GI50 [54]: 2.86 µM | TGI [54]: 8.35 µM | GI50 [55]: 5.78 µM | TGI [55]: 30.5 µM | GI50 [56]: 17.6 µM | TGI [56]: > 100 µM

From PubChem BioAssay (NCI)
